In PMC3771683 (Analytical chemistry, 2013):

Assays:
[1] = system: Mapk, Akt, and Rps6ka1 kinases; assay type: cell-based; settings: MCF 10A cells treated with EGF or lapatinib vs DMSO; Western blotting and KAYAK
Tp53rk = biological target: T1, Tp53rk (Homo sapiens, UniProt Q96S44); assay: AAP protein-level capture with TMT, staurosporine competition in HeLa lysate; assay type: binding
T1 sequence (Q96S44 1-253): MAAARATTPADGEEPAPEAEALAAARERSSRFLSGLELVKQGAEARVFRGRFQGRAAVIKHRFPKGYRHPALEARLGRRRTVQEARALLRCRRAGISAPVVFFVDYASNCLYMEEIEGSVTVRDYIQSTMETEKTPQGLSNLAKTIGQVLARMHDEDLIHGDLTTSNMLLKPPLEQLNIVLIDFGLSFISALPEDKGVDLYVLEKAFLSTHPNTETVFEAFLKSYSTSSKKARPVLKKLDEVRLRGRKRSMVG

Compound	activation of Mapk, Akt, and Rps6ka1 kinases [1]	IC50 (Tp53rk)
CS(=O)(=O)CCNCc1ccc(-c2ccc3ncnc(Nc4ccc(OCc5cccc(F)c5)c(Cl)c4)c3c2)o1 [lapatinib]	inhibition when lapatinib was present	
CN[C@@H]1C[C@H]2O[C@@](C)([C@@H]1OC)n1c3ccccc3c3c4c(c5c6ccccc6n2c5c31)C(=O)NC4 [staurosporine]		73 µM
EGF: stimulates EGFR and numerous downstream kinases	substantial activation	
